Source: PubChem BioAssay AID602272 (Broad Institute, 2012)
The source made the active and inactive calls.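 The calls were made as follows: active = every repeat run shows inhibition with half-maximal dose at most twice the top dose tested; inconclusive = repeat runs disagree on the call; inactive = every repeat run inactive.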

Molecular target: Glycogen synthase kinase-3 beta (Homo sapiens) (UniProt P49841)
Test: human GSK3B enzyme activity inhibitors – biochemical, ADP-Glo luminescence, GST-GSK3beta, dry powder, selectivity assay for CDK5 tau phosphorylation inhibitor project, dose response (AID 602272)
Details: recombinant GST-GSK3beta, 60 min

Chain of Glycogen synthase kinase-3 beta (Homo sapiens) (P49841 whole entry, looked up): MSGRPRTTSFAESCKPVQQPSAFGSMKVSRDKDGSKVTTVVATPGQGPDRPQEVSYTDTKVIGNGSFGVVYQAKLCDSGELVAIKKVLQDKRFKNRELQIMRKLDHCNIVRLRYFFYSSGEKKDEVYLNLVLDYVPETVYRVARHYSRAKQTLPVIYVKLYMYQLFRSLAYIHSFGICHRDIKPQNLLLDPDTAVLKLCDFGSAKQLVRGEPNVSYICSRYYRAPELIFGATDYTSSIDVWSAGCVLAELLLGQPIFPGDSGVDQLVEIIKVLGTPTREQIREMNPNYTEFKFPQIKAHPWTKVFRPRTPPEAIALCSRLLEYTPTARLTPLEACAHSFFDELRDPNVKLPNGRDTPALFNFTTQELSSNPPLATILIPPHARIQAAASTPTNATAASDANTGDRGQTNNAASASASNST

AC50 [µM]	Compound
18.9	CC(C)(C)n1c(NC(=O)c2cccc(S(C)(=O)=O)c2)nc2ccccc21

Same assay, conditions: recombinant GST-GSK3beta, 60 min, at 30 µM (top of the series)

Compound	activity change, negative = inhibition
CCOc1cc(C(=O)N2CCN(c3ccccn3)CC2)cc(OCC)c1OCC	inactive
N#Cc1ccc(N2CCN(C(=O)c3ccc(Cl)cc3)CC2)nc1	inactive
CCn1c(NC(=O)c2cccc(S(=O)(=O)NC)c2)nc2ccccc21	inactive
CCCn1c(NC(=O)c2ccc(OC)c(S(=O)(=O)N3CCCC3)c2)nc2ccccc21	inactive
O=C(c1ccccc1)N1CCN(c2ccccn2)CC1	inactive
CCCn1c(NC(=O)c2cccc(S(=O)(=O)N3CCCCC3)c2)nc2ccccc21	inactive
CCCn1c(NC(=O)c2cccc(S(=O)(=O)N(CC)CC)c2)nc2ccccc21	inactive
O=C(c1ccc(Cl)cc1)N1CCN(c2ccc(C(F)(F)F)cn2)CC1	inactive
O=C(c1ccc(Cl)cc1)N1CCN(c2cccc(C(F)(F)F)n2)CC1	inactive
O=C(c1ccccc1Cl)N1CCN(c2ccccn2)CC1	inactive
COc1cccc(C(=O)N2CCN(c3ccccn3)CC2)c1	inactive
O=C(c1ccc(Cl)cc1)N1CCN(c2ncccc2C(F)(F)F)CC1	inactive
Cc1cccc(N2CCN(C(=O)c3ccc(Cl)cc3)CC2)n1	inactive
COc1ccc(C(=O)N2CCN(c3ccccn3)CC2)cc1	inactive
CCCCC(=O)N1CCN(c2ccccn2)CC1	inactive
N#Cc1cccnc1N1CCN(C(=O)c2ccc(Cl)cc2)CC1	inactive
COc1cc(C(=O)N2CCN(c3ccccc3)CC2)cc(OC)c1OC	inactive
COCCC(=O)N1CCN(c2ccccn2)CC1	inactive
c1ccc(N2CCNCC2)nc1	inactive
O=C(c1ccc(F)cc1)N1CCN(c2ccccn2)CC1	inactive

Continued, values first:

activity change, negative = inhibition	Compound
inactive	CC(C)C(=O)N1CCN(c2ccccn2)CC1
inactive	CCCn1c(NC(=O)c2cccc(S(=O)(=O)N(C)C)c2)nc2ccccc21
inactive	CCCn1c(NC(=O)c2ccc(Cl)c(S(=O)(=O)N3CCCC3)c2)nc2ccccc21
inactive	Cc1ccnc(N2CCN(C(=O)c3ccc(Cl)cc3)CC2)c1
inactive	O=C(c1ccc(Cl)cc1)N1CCN(c2ccccn2)CC1
inactive	Cc1ccc(N2CCN(C(=O)c3ccc(Cl)cc3)CC2)nc1
inactive	Cc1ccc(C(=O)N2CCN(c3ccccn3)CC2)cc1
inactive	O=C(C1CCCCC1)N1CCN(c2ccccn2)CC1
inactive	N#Cc1ccc(C(=O)N2CCN(c3ccccn3)CC2)cc1
inactive	COc1cccnc1N1CCN(C(=O)c2ccc(Cl)cc2)CC1
inactive	COc1ccnc(N2CCN(C(=O)c3ccc(Cl)cc3)CC2)c1
inactive	COc1cc(C(=O)N2CCN(c3ccccn3)CC2)cc(OC)c1OC
inactive	O=C(c1cccc(Cl)c1)N1CCN(c2ccccn2)CC1
